Measured values from patent US20250163066A1, “PROTACs of MALT1” (TEGID THERAPEUTICS, INC., priority 2022, published 2025).

The compounds below were run against MALT1 (Homo sapiens (Human), UniProt Q9UDY8) (assay: MALT1 enzymatic activity inhibition (fluorescence, Ac-LRSR-AMC substrate)). Settings: recombinant MALT1 1.5 ng/μl, Ac-LRSR-AMC 1 μM.
Format: biochemical
Outline: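 Recombinant human MALT1 (1.5 ng/μl final) preincubated 10 min at rt with compounds in 50 mM HEPES pH 7.2-7.4, 100 mM NaCl, 900 mM sodium citrate, 10 mM DTT; 1 μM Ac-LRSR-AMC then added. AMC fluorescence read at start and after 30 min 37 °C plus 30 min rt; difference gives signal, % inhibition fitted to IC50.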

Sequence of MALT1 (Q9UDY8 whole entry): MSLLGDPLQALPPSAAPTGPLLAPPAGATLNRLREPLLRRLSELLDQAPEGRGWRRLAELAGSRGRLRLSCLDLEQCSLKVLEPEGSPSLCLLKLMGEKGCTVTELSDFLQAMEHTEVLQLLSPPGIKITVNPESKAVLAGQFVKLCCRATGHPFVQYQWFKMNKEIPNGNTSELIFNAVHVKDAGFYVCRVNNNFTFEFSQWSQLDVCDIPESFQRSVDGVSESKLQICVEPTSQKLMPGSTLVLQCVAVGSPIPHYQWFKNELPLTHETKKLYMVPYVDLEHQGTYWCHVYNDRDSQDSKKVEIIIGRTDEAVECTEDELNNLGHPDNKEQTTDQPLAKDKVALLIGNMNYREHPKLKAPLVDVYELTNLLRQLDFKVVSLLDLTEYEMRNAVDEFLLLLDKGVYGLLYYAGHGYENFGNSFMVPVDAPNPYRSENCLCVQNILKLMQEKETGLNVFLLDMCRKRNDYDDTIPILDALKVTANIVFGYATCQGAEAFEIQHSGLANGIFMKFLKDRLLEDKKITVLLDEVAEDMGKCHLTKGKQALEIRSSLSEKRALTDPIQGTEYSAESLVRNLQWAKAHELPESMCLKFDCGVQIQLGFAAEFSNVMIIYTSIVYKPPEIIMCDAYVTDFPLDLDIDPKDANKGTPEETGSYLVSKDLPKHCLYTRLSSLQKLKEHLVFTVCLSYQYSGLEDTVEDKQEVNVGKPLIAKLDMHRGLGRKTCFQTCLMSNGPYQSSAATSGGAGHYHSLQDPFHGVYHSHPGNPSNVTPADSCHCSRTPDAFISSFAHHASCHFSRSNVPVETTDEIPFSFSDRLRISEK

**Q.** With `O=C1CCC(N2Cc3cc(N4CCN(CCCCCn5cc(NC(=O)Nc6cnc7ccnn7c6C6CCC6)c(C(F)(F)F)n5)CC4)ccc3C2=O)C(=O)N1` (centres unmarked) [Compound 156, 1-(7-cyclobutylpyrazolo[1,5-a]pyrimidin-6-yl)-3-[1-[5-[4-[2-(2,6-dioxo-3-piperidyl)-1-oxo-isoindolin-5-yl]piperazin-1-yl]pentyl]-3-(trifluoromethyl)pyrazol-4-yl]urea] as the compound, how does the EC50 read?
**A.** > 5 µM

**Q.** `CC(C)c1c(NC(=O)Nc2cn(CCCCC(=O)N3CCN(c4ccc5c(c4)CN(C4CCC(=O)NC4=O)C5=O)CC3)nc2C(F)(F)F)cnc2ccnn12` (centres unmarked) [Compound 157, 1-[1-[5-[4-[2-(2,6-dioxo-3-piperidyl)-1-oxo-isoindolin-5-yl]piperazin-1-yl]-5-oxo-pentyl]-3-(trifluoromethyl)pyrazol-4-yl]-3-(7-isopropylpyrazolo[1,5-a]pyrimidin-6-yl)urea] was tested. Which EC50 did it give?
**A.** > 5 µM

**Q.** How did the EC50 turn out when `O=C1CCC(N2Cc3cc(N4CCN(C(=O)CCCCCc5nc(-c6ncc(NC(=O)Nc7cnc8ccnn8c7C7CC7)cc6Cl)no5)CC4)ccc3C2=O)C(=O)N1` (centres unmarked) [Compound 158, 1-[5-chloro-6-[5-[6-[4-[2-(2,6-dioxo-3-piperidyl)-1-oxo-isoindolin-5-yl]piperazin-1-yl]-6-oxo-hexyl]-1,2,4-oxadiazol-3-yl]-3-pyridyl]-3-(7-cyclopropylpyrazolo[1,5-a]pyrimidin-6-yl)urea] was run?
**A.** ≤ 0.2 µM

**Q.** `O=C1CCC(N2Cc3cc(N4CCN(CCCCCCc5nc(-c6ncc(NC(=O)Nc7cnc8ccnn8c7C7CC7)cc6Cl)no5)CC4)ccc3C2=O)C(=O)N1` (centres unmarked) [Compound 159, 1-[5-chloro-6-[5-[6-[4-[2-(2,6-dioxo-3-piperidyl)-1-oxo-isoindolin-5-yl]piperazin-1-yl]hexyl]-1,2,4-oxadiazol-3-yl]-3-pyridyl]-3-(7-cyclopropylpyrazolo[1,5-a]pyrimidin-6-yl)urea] was tested. Which EC50 did it give?
**A.** ≤ 0.2 µM

**Q.** How did the EC50 turn out when `O=C1CCC(N2Cc3cc(N4CCN(C(=O)CCCCc5nc(-c6ncc(NC(=O)Nc7cnc8ccnn8c7C7CC7)cc6Cl)no5)CC4)ccc3C2=O)C(=O)N1` (centres unmarked) [Compound 160, 1-[5-chloro-6-[5-[5-[4-[2-(2,6-dioxo-3-piperidyl)-1-oxo-isoindolin-5-yl]piperazin-1-yl]-5-oxo-pentyl]-1,2,4-oxadiazol-3-yl]-3-pyridyl]-3-(7-cyclopropylpyrazolo[1,5-a]pyrimidin-6-yl)urea] was run?
**A.** ≤ 0.2 µM

**Q.** With `O=C1CCC(N2Cc3cc(N4CCN(CCCCCc5nc(-c6ncc(NC(=O)Nc7cnc8ccnn8c7C7CC7)cc6Cl)no5)CC4)ccc3C2=O)C(=O)N1` (centres unmarked) [Compound 161, 1-[5-chloro-6-[5-[5-[4-[2-(2,6-dioxo-3-piperidyl)-1-oxo-isoindolin-5-yl]piperazin-1-yl]pentyl]-1,2,4-oxadiazol-3-yl]-3-pyridyl]-3-(7-cyclopropylpyrazolo[1,5-a]pyrimidin-6-yl)urea] as the compound, how does the EC50 read?
**A.** ≤ 0.2 µM

**Q.** For `CC(C)c1c(NC(=O)Nc2cnc(-c3noc(CCCCCC(=O)N4CCN(c5ccc6c(c5)CN(C5CCC(=O)NC5=O)C6=O)CC4)n3)c(C(F)(F)F)c2)cnc2ccnn12` (centres unmarked) [Compound 162, 1-[6-[5-[6-[4-[2-(2,6-dioxo-3-piperidyl)-1-oxo-isoindolin-5-yl]piperazin-1-yl]-6-oxo-hexyl]-1,2,4-oxadiazol-3-yl]-5-(trifluoromethyl)-3-pyridyl]-3-(7-isopropylpyrazolo[1,5-a]pyrimidin-6-yl)urea], which EC50 is on record?
**A.** ≤ 0.2 µM

**Q.** Which EC50 does the source give for `Cc1nn(CCCCC(=O)N2CCN(c3ccc4c(c3)CN(C3CCC(=O)NC3=O)C4=O)CC2)cc1NC(=O)Nc1cnc2ccnn2c1C(C)C` (centres unmarked) [Compound 164, 1-[1-[5-[4-[2-(2,6-dioxo-3-piperidyl)-1-oxo-isoindolin-5-yl]piperazin-1-yl]-5-oxo-pentyl]-3-methyl-pyrazol-4-yl]-3-(7-isopropylpyrazolo[1,5-a]pyrimidin-6-yl)urea] here?
**A.** > 5 µM
